Reference: the NIST ThermoML archive (doi:10.1016/j.fluid.2018.09.026)
Several values for one entry are separate records, joined by “and”; a condition that tells them apart may be missing. Equal values may be shown once.

Conditions: Liquid; for mass density: Vibrating tube method; for viscosity: Vibrating wire viscometry

OCCOCCO [diethylene glycol]
Conditions	mass density	viscosity
323.15 K, 19770 kPa	1103.6 kg/m3	–
323.15 K, 24680 kPa	1105.8 kg/m3	–
323.15 K, 29600 kPa	1108 kg/m3	–
323.15 K, 34530 kPa	1110.1 kg/m3	–
323.15 K, 39360 kPa	1112.2 kg/m3	–
323.15 K, 44290 kPa	1114.3 kg/m3	–
323.15 K, 49260 kPa	1116.3 kg/m3	–
323.15 K, 54100 kPa	1118.2 kg/m3	–
323.15 K, 59060 kPa	1120.2 kg/m3	–
323.15 K, 63880 kPa	1122 kg/m3	–
323.15 K, 68770 kPa	1123.8 kg/m3	–
333.15 K, 100 kPa	1087 kg/m3	–
333.15 K, 660 kPa	1087.3 kg/m3	–
333.15 K, 1120 kPa	1087.5 kg/m3	–
333.15 K, 1630 kPa	1087.8 kg/m3	–
333.15 K, 2100 kPa	1088 kg/m3	–
333.15 K, 3070 kPa	1088.5 kg/m3	–
333.15 K, 5060 kPa	1089.5 kg/m3	–
333.15 K, 7050 kPa	1090.5 kg/m3	–
333.15 K, 9930 kPa	1091.9 kg/m3	–
333.15 K, 14780 kPa	1094.3 kg/m3	–
333.15 K, 19770 kPa	1096.7 kg/m3	–
333.15 K, 24660 kPa	1099 kg/m3	–
333.15 K, 29540 kPa	1101.2 kg/m3	–
333.15 K, 34500 kPa	1103.4 kg/m3	–
333.15 K, 39330 kPa	1105.5 kg/m3	–
333.15 K, 44230 kPa	1107.6 kg/m3	–
333.15 K, 49130 kPa	1109.7 kg/m3	–
333.15 K, 54060 kPa	1111.7 kg/m3	–
333.15 K, 59020 kPa	1113.7 kg/m3	–
333.15 K, 63840 kPa	1115.7 kg/m3	–
333.15 K, 68830 kPa	1117.5 kg/m3	–
333.28 K, 210 kPa	–	7.305 mPa·s [middle of 6 runs]
333.28 K, 1080 kPa	–	7.347 mPa·s and 7.376 mPa·s and 7.374 mPa·s
333.28 K, 2290 kPa	–	7.397 mPa·s [middle of 6 runs]
333.28 K, 5100 kPa	–	7.491 mPa·s
333.28 K, 5110 kPa	–	7.506 mPa·s and 7.492 mPa·s
333.28 K, 5120 kPa	–	7.53 mPa·s and 7.547 mPa·s
333.28 K, 10340 kPa	–	7.758 mPa·s and 7.739 mPa·s
333.28 K, 10360 kPa	–	7.749 mPa·s and 7.734 mPa·s
333.28 K, 19960 kPa	–	8.178 mPa·s [middle of 5 runs]
333.28 K, 30150 kPa	–	8.721 mPa·s and 8.673 mPa·s
333.28 K, 30160 kPa	–	8.678 mPa·s and 8.671 mPa·s
333.28 K, 40000 kPa	–	9.197 mPa·s
333.28 K, 40010 kPa	–	9.192 mPa·s and 9.199 mPa·s and 9.178 mPa·s
333.28 K, 50250 kPa	–	9.728 mPa·s and 9.806 mPa·s
333.28 K, 50260 kPa	–	9.736 mPa·s
333.28 K, 68880 kPa	–	10.71 mPa·s
333.28 K, 69100 kPa	–	10.77 mPa·s
333.28 K, 69180 kPa	–	10.8 mPa·s
342.75 K, 250 kPa	–	5.567 mPa·s and 5.585 mPa·s and 5.609 mPa·s
342.75 K, 260 kPa	–	5.588 mPa·s and 5.573 mPa·s
342.75 K, 1040 kPa	–	5.634 mPa·s [middle of 5 runs]
342.75 K, 2130 kPa	–	5.655 mPa·s [middle of 5 runs]
342.75 K, 5010 kPa	–	5.77 mPa·s
342.75 K, 5020 kPa	–	5.764 mPa·s and 5.765 mPa·s
342.75 K, 9990 kPa	–	5.9 mPa·s and 5.894 mPa·s and 5.912 mPa·s
342.75 K, 10000 kPa	–	5.925 mPa·s
342.75 K, 20270 kPa	–	6.257 mPa·s and 6.245 mPa·s
342.75 K, 20280 kPa	–	6.256 mPa·s and 6.268 mPa·s
342.75 K, 30150 kPa	–	6.641 mPa·s [middle of 6 runs]
342.75 K, 39690 kPa	–	6.989 mPa·s
342.75 K, 39700 kPa	–	6.991 mPa·s
342.75 K, 39710 kPa	–	6.946 mPa·s and 6.939 mPa·s and 6.957 mPa·s
342.75 K, 50090 kPa	–	7.319 mPa·s [middle of 6 runs]
342.75 K, 70440 kPa	–	8.133 mPa·s
342.75 K, 70450 kPa	–	8.148 mPa·s
342.75 K, 70460 kPa	–	8.145 mPa·s
342.75 K, 70480 kPa	–	8.152 mPa·s
342.75 K, 70500 kPa	–	8.131 mPa·s
342.75 K, 70510 kPa	–	8.177 mPa·s
343.15 K, 100 kPa	1079.7 kg/m3	–
343.15 K, 670 kPa	1080 kg/m3	–
343.15 K, 1100 kPa	1080.2 kg/m3	–
343.15 K, 1520 kPa	1080.4 kg/m3	–
343.15 K, 2120 kPa	1080.7 kg/m3	–
343.15 K, 3060 kPa	1081.2 kg/m3	–
343.15 K, 5040 kPa	1082.3 kg/m3	–
343.15 K, 6970 kPa	1083.3 kg/m3	–
343.15 K, 9950 kPa	1084.8 kg/m3	–
343.15 K, 14870 kPa	1087.3 kg/m3	–
343.15 K, 19740 kPa	1089.6 kg/m3	–
343.15 K, 24710 kPa	1092.1 kg/m3	–
343.15 K, 29560 kPa	1094.4 kg/m3	–
343.15 K, 34490 kPa	1096.6 kg/m3	–
343.15 K, 39350 kPa	1098.8 kg/m3	–
343.15 K, 44290 kPa	1101 kg/m3	–
343.15 K, 49180 kPa	1103.1 kg/m3	–
343.15 K, 54070 kPa	1105.2 kg/m3	–
343.15 K, 58980 kPa	1107.3 kg/m3	–
343.15 K, 63910 kPa	1109.3 kg/m3	–
343.15 K, 68720 kPa	1111.2 kg/m3	–
353.15 K, 100 kPa	1072.2 kg/m3	–
353.15 K, 560 kPa	1072.5 kg/m3	–
353.15 K, 1090 kPa	1072.8 kg/m3	–
353.15 K, 1550 kPa	1073 kg/m3	–
353.15 K, 2080 kPa	1073.3 kg/m3	–
353.15 K, 3040 kPa	1073.8 kg/m3	–
353.15 K, 5060 kPa	1074.9 kg/m3	–
353.15 K, 7020 kPa	1076 kg/m3	–
353.15 K, 9970 kPa	1077.5 kg/m3	–
353.15 K, 14830 kPa	1080.1 kg/m3	–
353.15 K, 19740 kPa	1082.6 kg/m3	–
353.15 K, 24680 kPa	1085.1 kg/m3	–
353.15 K, 29560 kPa	1087.5 kg/m3	–
353.15 K, 34550 kPa	1089.8 kg/m3	–
353.15 K, 39420 kPa	1092.1 kg/m3	–
353.15 K, 44280 kPa	1094.3 kg/m3	–
353.15 K, 49230 kPa	1096.5 kg/m3	–
353.15 K, 54110 kPa	1098.7 kg/m3	–
353.15 K, 59020 kPa	1100.8 kg/m3	–
353.15 K, 64010 kPa	1102.9 kg/m3	–
353.15 K, 68770 kPa	1104.8 kg/m3	–
362.81 K, 230 kPa	–	3.458 mPa·s [middle of 4 runs]
362.81 K, 240 kPa	–	3.444 mPa·s
362.81 K, 1070 kPa	–	3.462 mPa·s and 3.469 mPa·s
362.81 K, 2190 kPa	–	3.473 mPa·s and 3.514 mPa·s and 3.458 mPa·s
362.81 K, 5080 kPa	–	3.546 mPa·s [middle of 5 runs]
362.81 K, 9970 kPa	–	3.652 mPa·s [middle of 4 runs]
362.81 K, 20040 kPa	–	3.834 mPa·s
362.81 K, 20050 kPa	–	3.862 mPa·s and 3.82 mPa·s and 3.837 mPa·s
362.81 K, 30200 kPa	–	4.039 mPa·s
362.81 K, 30210 kPa	–	4.007 mPa·s
362.81 K, 40240 kPa	–	4.264 mPa·s and 4.237 mPa·s
362.81 K, 40250 kPa	–	4.205 mPa·s and 4.242 mPa·s
362.81 K, 50100 kPa	–	4.435 mPa·s
362.81 K, 50110 kPa	–	4.47 mPa·s and 4.453 mPa·s
362.81 K, 69940 kPa	–	4.921 mPa·s
362.81 K, 69950 kPa	–	4.913 mPa·s
362.81 K, 70000 kPa	–	4.894 mPa·s
362.81 K, 70020 kPa	–	4.924 mPa·s
363.08 K, 100 kPa	1064.5 kg/m3 and 1064.4 kg/m3	–
363.08 K, 620 kPa	1064.7 kg/m3	–
363.08 K, 1110 kPa	1065 kg/m3	–
363.08 K, 1570 kPa	1065.2 kg/m3	–
363.08 K, 2100 kPa	1065.5 kg/m3	–
363.08 K, 3020 kPa	1066 kg/m3	–
363.08 K, 5070 kPa	1067.2 kg/m3	–
363.08 K, 7000 kPa	1068.3 kg/m3	–
363.08 K, 9970 kPa	1069.9 kg/m3	–
363.08 K, 14840 kPa	1072.6 kg/m3	–
363.08 K, 19750 kPa	1075.1 kg/m3	–
363.08 K, 24660 kPa	1077.7 kg/m3	–
363.08 K, 29610 kPa	1080.2 kg/m3	–
363.08 K, 34480 kPa	1082.6 kg/m3	–
363.08 K, 39400 kPa	1084.9 kg/m3	–
363.08 K, 44290 kPa	1087.2 kg/m3	–
363.08 K, 49160 kPa	1089.5 kg/m3	–
363.08 K, 54110 kPa	1091.7 kg/m3	–
363.08 K, 58990 kPa	1093.9 kg/m3	–
363.08 K, 63880 kPa	1096 kg/m3	–
363.08 K, 68760 kPa	1098 kg/m3	–
